From patent US20250170114A1, “METHODS OF TREATMENT USING T-TYPE CALCIUM CHANNEL MODULATORS” (Praxis Precision Medicines, Inc., priority 2022, published 2025)

System: participants with ET
Test: Phase 2 trial: Patient Global Impression of Change (PGI-C)
Type: in vivo, human
Details: Part B RWD (RWAS), Day 70, study drug group, n = 5, vs randomization baseline
Description: The Patient Global Impression of Change (PGI-C) assesses the participant's improvement (or worsening). The participant is required to assess their condition relative to Baseline (Day 0) on a 7-point scale from 1 (very much improved) to 7 (very much worse). The assessment is made independent of whether the participant believes the improvement/worsening was drug-related or not. In some embodiments, the method results in a reduction in PGI-C score compared to baseline. The Columbia-Suicide Severity Rating Scale (C-SSRS) assesses suicidal ideation and behavior in participants during participation in a clinical trial of centrally-acting drugs. The C-SSRS is composed of 5 questions addressing suicidal behavior and 5 questions addressing suicidal ideation, with sub-questions assessing the severity. The tool should be administered via interview with the participant (by a trained operator/interviewer) and takes about 5 to 10 minutes to complete. In some embodiments, the method results in a reduction in suicidal ideation and/or behavior as compared to suicidal ideation and/or behavior prior to treatment. In other embodiments, the method results in no change in the C-SSRS score of a patient as compared to the C-SSRS score prior to treatment. Key safety measures included clinical laboratory evaluations, 12-lead ECG, C-SSRS, and vital signs. Key efficacy assessments included the TETRAS Performance subscale, TETRAS Upper Limb using accelerometry, CGI, and PGI-C. Blood samples were obtained for the determination of study drug plasma concentrations using a validated bioanalytical method and may also be used for method development and/or metabolite characterization. In both phases, key safety measures included clinical laboratory evaluations, 12-lead ECG, C-SSRS, and vital signs. Key efficacy assessments included the TETRAS Performance subscale, TETRAS Upper Limb using accelerometry, CGI, PGI-C, TETRAS ADL Subscale, QUEST, BDI-II, and BAI. Blood samples were obtained for the determination of study drug and metabolite plasma concentrations.

CC(C)(C)NC(=O)CN1CCC(CNC(=O)c2cc(F)cc(Cl)c2)CC1.Cl [Study drug]
PGI-C Score 3 minimally improved: 1 (20.0) n (%)
PGI-C Score 4 no change: 3 (60.0) n (%)
PGI-C Score 6 much worse: 1 (20.0) n (%)
